In paper PMC7765401, “Antiproliferative and Antiangiogenic Properties of New VEGFR-2-targeting 2-thioxobenzo[g]quinazoline Derivatives (In Vitro)” (Molecules, 2020):
Several values for one entry are separate records, joined by “and”; a condition that tells them apart may be missing. Equal entries are not always repeated. Where two headings read alike, the source gives them in different places.

Experiments:
[1] = system: MCF-7 human cancer-cell line; experiment: MTT antiproliferative assay, MCF-7; format: cell-based
Procedure: (§1) Selected compounds were evaluated in vitro for their antiproliferative activities against HepG2 and MCF-7 human cancer-cell lines using MTT assays. Cell viabilities and IC50 values were obtained and compared with those of the control, doxorubicin (Table 1).
(§2) The antiproliferative activity of the test compounds against HepG2, and MCF-7 human cancer-cell lines were evaluated by MTT assay. The detailed methodology procedure was reported. […]

[2] = system: HepG2 human cancer-cell line; experiment: MTT antiproliferative assay, HepG2; format: cell-based
Procedure: as §1, §2

MCF-7 cells [3] = experiment: Cell-cycle analysis by flow cytometry (PI), MCF-7; format: cell-based, human; conditions: MCF-7, 48 h at the IC50 of the compound
Procedure: (§3) To investigate whether the tested compounds could arrest HepG2 and MCF-7 mitotic cell division, cell distributions at cell-cycle phases were analyzed by flow cytometry following their treatment with the vehicle or the indicated compound at its IC50 concentration. Cells and samples were prepared as previously reported, and a PI (ab139418) Flow Cytometry Kit (Abcam, Cambridge, UK) was used in accordance with the manufacturer’s protocol. In brief, both HepG2 and MCF-7 cells were separate, plated into six-well plates at a density of 0.6 × 10^6 cells/well in DMEM growth medium supplemented with 10% FBS. Cells were incubated for 24 h at 37 °C and 5% CO2 prior to exposure to either the vehicle (DMSO) as the control or 13, 14, or 15, at their IC50 concentrations. […] All cells were incubated for 48 h, washed with cold PBS after being harvested to single-cell suspensions by trypsinization, and fixed with 70% ethanol. The fixed cells were rehydrated in PBS prior to being lysed in a prepared solution of PI, Triton X-100, and RNase. Finally, the cells were kept at 37 °C for 15 min and analyzed using a FACS Caliber flow cytometer (BD Biosciences and Co., Franklin Lakes, NJ, USA).

MCF-7 cells [4] = experiment: Apoptosis by annexin-V FITC/PI double staining, MCF-7; format: cell-based, human; conditions: MCF-7, 48 h at the IC50 of the compound
Procedure: (§4) Apoptosis was detected for both HepG2 and MCF-7cells using the same preparation and sample treatment conditions as those used for cell-cycle analysis. The manufacturer’s instructions for the annexin-V FITC apoptosis detection kit (K101, Biovision, Milpitas, CA, USA) were followed. In brief, treated cells were detached after 48 h by trypsinization, washed twice with cold PBS, and stained with 5 μL of annexin-V fluorescein isothiocyanate (annexin-V FITC) and 5 μL of PI in the binding buffer for 15 min at 37 °C. Finally, the processed cells were analyzed using a FACS Caliber flow cytometer (BD Biosciences and Co., Franklin Lakes, NJ, USA).

VEGFR-2 (KDR) = molecular target: T1, VEGFR-2 (KDR) (Homo sapiens, UniProt P35968); experiment: In vitro inhibition of VEGFR-2 (KDR) kinase assay kit; format: biochemical; conditions: for Fold Relative to Sorafenib: VEGFR-2 IC50 relative to sorafenib; for IC50: luminescence kinase kit, 0.0–10.0 μM range, read-out: IC50 nM, VEGFR-2 enzyme
T1 construct: purchased Cat. #40325
T1 sequence (P35968 20-1356): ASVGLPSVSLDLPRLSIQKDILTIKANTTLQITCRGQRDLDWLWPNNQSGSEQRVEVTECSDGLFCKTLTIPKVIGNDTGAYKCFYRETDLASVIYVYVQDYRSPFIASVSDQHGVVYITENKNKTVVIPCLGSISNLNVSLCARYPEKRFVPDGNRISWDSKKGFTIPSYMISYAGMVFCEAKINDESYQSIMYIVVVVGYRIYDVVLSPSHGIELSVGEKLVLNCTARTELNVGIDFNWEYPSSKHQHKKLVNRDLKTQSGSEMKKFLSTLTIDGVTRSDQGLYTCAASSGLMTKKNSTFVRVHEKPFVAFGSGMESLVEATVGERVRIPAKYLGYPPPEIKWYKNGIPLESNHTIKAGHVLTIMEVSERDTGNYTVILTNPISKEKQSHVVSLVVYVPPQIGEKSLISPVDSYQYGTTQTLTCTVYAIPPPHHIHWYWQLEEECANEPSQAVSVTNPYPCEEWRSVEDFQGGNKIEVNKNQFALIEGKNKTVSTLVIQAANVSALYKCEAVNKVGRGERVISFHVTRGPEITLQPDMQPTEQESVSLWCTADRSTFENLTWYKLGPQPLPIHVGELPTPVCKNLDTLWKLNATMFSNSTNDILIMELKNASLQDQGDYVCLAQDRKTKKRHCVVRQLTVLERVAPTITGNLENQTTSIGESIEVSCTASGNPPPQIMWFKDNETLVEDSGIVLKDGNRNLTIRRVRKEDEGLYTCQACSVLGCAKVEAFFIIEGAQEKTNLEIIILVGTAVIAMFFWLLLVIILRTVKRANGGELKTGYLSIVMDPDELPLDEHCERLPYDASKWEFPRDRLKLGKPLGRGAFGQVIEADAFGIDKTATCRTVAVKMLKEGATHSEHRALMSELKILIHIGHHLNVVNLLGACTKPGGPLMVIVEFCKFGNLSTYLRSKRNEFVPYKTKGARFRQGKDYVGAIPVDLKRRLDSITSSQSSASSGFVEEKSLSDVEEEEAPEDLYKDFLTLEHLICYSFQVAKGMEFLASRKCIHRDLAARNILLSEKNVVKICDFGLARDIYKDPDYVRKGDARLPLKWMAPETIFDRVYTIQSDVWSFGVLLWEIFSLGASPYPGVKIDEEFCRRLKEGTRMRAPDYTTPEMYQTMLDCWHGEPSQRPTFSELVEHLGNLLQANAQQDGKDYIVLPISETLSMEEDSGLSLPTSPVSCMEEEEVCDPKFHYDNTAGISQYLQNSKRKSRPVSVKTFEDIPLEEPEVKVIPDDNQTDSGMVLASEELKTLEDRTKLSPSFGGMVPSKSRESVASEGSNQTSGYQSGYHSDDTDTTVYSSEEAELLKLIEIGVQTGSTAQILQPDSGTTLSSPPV
Procedure: At the indicated end of the experiment, the luminescence was measured by a Tecan spark microplate reader.

HepG2 cells [5] = experiment: Cell-cycle analysis by flow cytometry (PI), HepG2; format: cell-based, human; conditions: HepG2, 48 h at the IC50 of the compound
Procedure: as §3

HepG2 cells [6] = experiment: Apoptosis by annexin-V FITC/PI double staining, HepG2; format: cell-based, human; conditions: HepG2, 48 h at the IC50 of the compound
Procedure: as §4

[7] = MCF7, MTT, 48 h of exposure, read-out: IC50 (μM) ± SD MCF-7
[8] = MCF7, Table S5, read-out: pIC50 (exp) MCF7 (converted)
[9] = MTT, 48 h of exposure, read-out: IC50 (μM) ± SD HepG2
[10] = Table S5, read-out: pIC50(exp) HepG2 (converted)

| IC50 [1, 7] [µM] | IC50 [1, 8] [µM] | IC50 [2, 9] [µM] | IC50 [2, 10] [µM] | melting point [°C] | SMILES | other results |
| --- | --- | --- | --- | --- | --- | --- |
| 10.7 ± 1.1 | 10.7 | 40.4 ± 4.1 | 40.4 | – | Cn1c(=S)[nH]c2cc3ccccc3cc2c1=O [Compound 1, 3-Methyl-2-thioxo-2,3-dihydrobenzo[g]quinazolin-4(1H)-one] | – |
| 10.5 ± 0.5 | 10.5 | 36.1 ± 3.6 | 36.1 | – | CCn1c(=S)[nH]c2cc3ccccc3cc2c1=O [Compound 2, 3-Ethyl-2-thioxo-2,3-dihydrobenzo[g]quinazolin-4(1H)-one] | – |
| 10.1 ± 0.7 | 10.1 | 29.9 ± 2.5 | 29.9 | 115 to 117 | CCSc1nc2cc3ccccc3cc2c(=O)n1C [Compound 3, 2-(Ethylthio)-3-methylbenzo[g]quinazolin-4(3H)-one] | – |
| 10.2 ± 1.1 | 10.2 | 34.8 ± 3.1 | 34.8 | 150 to 152 | Cn1c(SCc2ccccc2)nc2cc3ccccc3cc2c1=O [Compound 4, 2-(Benzylthio)-3-methylbenzo[g]quinazolin-4(3H)-one] | – |
| 10.6 ± 0.7 | 10.6 | 31.3 ± 3.1 | 31.3 | 155 to 157 | Cc1cccc(CSc2nc3cc4ccccc4cc3c(=O)n2C)c1 [Compound 5, 3-Methyl-2-((3-methylbenzyl)thio)benzo[g]quinazolin-4(3H)-one] | – |
| 10.7 ± 1.1 | 10.7 | 28.8 ± 2.6 | 28.8 | 190 to 192 | Cn1c(SCc2ccc(Cl)cc2)nc2cc3ccccc3cc2c1=O [Compound 6, 2-((4-Chlorobenzyl)thio)-3-methylbenzo[g]quinazolin-4(3H)-one] | – |
| 9.8 ± 1.2 | 9.8 | 36 ± 3.1 | 36 | 201 to 203 | Cn1c(SCc2ccc(C#N)cc2)nc2cc3ccccc3cc2c1=O [Compound 7, 4-(((3-Methyl-4-oxo-3,4-dihydrobenzo[g]quinazolin-2-yl)thio)methyl)benzonitrile] | – |
| 10.9 ± 0.9 | 10.9 | 31.3 ± 3.1 | 31.3 | – | COc1cccc(CSc2nc3cc4ccccc4cc3c(=O)n2C)c1 [Compound 8, 2-((3-Methoxybenzyl)thio)-3-methylbenzo[g]quinazolin-4(3H)-one] | – |
| 10.2 ± 0.6 | 10.2 | 31.7 ± 3.1 | 31.7 | 107 to 109 | CCSc1nc2cc3ccccc3cc2c(=O)n1CC [Compound 9, 3-Ethyl-2-(ethylthio)benzo[g]quinazolin-4(3H)-one] | – |
| 8.8 ± 0.5 | 8.79 | 36.2 ± 3.5 | 36.2 | 132 to 134 | CCn1c(SCc2ccccc2)nc2cc3ccccc3cc2c1=O [Compound 10, 2-(Benzylthio)-3-ethylbenzo[g]quinazolin-4(3H)-one] | Cell Cycle Distribution %G0/G1 (MCF-7 cells [3]): 39.28%; Cell Cycle Distribution %G2/M (MCF-7 cells [3]): 34.6% and 34.55%; Cell Cycle Distribution %S (MCF-7 cells [3]): 26.17%; Apoptosis Early (MCF-7 cells [4]): 4.64%; Apoptosis Late (MCF-7 cells [4]): 17.03%; Apoptosis Total (MCF-7 cells [4]): 21.67%; Necrosis (MCF-7 cells [4]): 9.61%; Fold Relative to Sorafenib (VEGFR-2 (KDR)): 4.5 fold; IC50 (VEGFR-2 (KDR)): 134 ± 8.2 nM |
| 10.6 ± 1.1 | 10.6 | 34.2 ± 2.9 | 34.2 | 140 to 142 | CCn1c(SCc2cccc(C#N)c2)nc2cc3ccccc3cc2c1=O [Compound 11, 3-(((3-Ethyl-4-oxo-3,4-dihydrobenzo[g]quinazolin-2-yl)thio)methyl)benzonitrile] | – |
| 11.2 ± 0.9 | 11.2 | 30.7 ± 3.1 | 30.7 | 186 to 188 | CCn1c(SCc2cccc(C)c2)nc2cc3ccccc3cc2c1=O [Compound 12, 3-Ethyl-2-((3-methylbenzyl)thio)benzo[g]quinazolin-4(3H)-one] | – |
| 10.1 ± 1.1 | 10.1 | 27.5 ± 2.1 | 27.5 | – | CCn1c(SCc2cccc(OC)c2)nc2cc3ccccc3cc2c1=O [Compound 13, 3-Ethyl-2-((3-methoxybenzyl)thio)benzo[g]quinazolin-4(3H)-one] | Cell Cycle Distribution %G2/M (MCF-7 cells [3]): 4.36%; Cell Cycle Distribution %S (MCF-7 cells [3]): 33.25%; Cell Cycle Distribution %G0/G1 (HepG2 cells [5]): 38.22%; Cell Cycle Distribution %G2/M (HepG2 cells [5]): 6.52%; Cell Cycle Distribution %S (HepG2 cells [5]): 55.3% and 55.26%; Apoptosis Early (HepG2 cells [6]): 2.82%; Apoptosis Late (HepG2 cells [6]): 18.56%; Apoptosis Total (HepG2 cells [6]): 21.38%; Necrosis (HepG2 cells [6]): 5.74%; Apoptosis Early (MCF-7 cells [4]): 7.28%; Apoptosis Late (MCF-7 cells [4]): 14.94%; Apoptosis Total (MCF-7 cells [4]): 22.22%; Necrosis (MCF-7 cells [4]): 15% and 15.31%; Fold Relative to Sorafenib (VEGFR-2 (KDR)): 1.5 fold; IC50 (VEGFR-2 (KDR)): 46.6 ± 2.8 nM |
| 9.6 ± 0.5 | 9.6 | 27.7 ± 2.5 | 27.7 | 190 to 192 | CCn1c(SCCN2CCCCC2)nc2cc3ccccc3cc2c1=O [Compound 14, 3-Ethyl-2-((2-(piperidin-1-yl)ethyl)thio)benzo[g]quinazolin-4(3H)-one] | Cell Cycle Distribution %G0/G1 (MCF-7 cells [3]): 66.24%; Cell Cycle Distribution %G2/M (MCF-7 cells [3]): 6.58%; Cell Cycle Distribution %S (MCF-7 cells [3]): 27.18%; Cell Cycle Distribution %G0/G1 (HepG2 cells [5]): 38.66%; Cell Cycle Distribution %G2/M (HepG2 cells [5]): 9.03%; Cell Cycle Distribution %S (HepG2 cells [5]): 52.3% and 52.31%; Apoptosis Early (HepG2 cells [6]): 2.97%; Apoptosis Late (HepG2 cells [6]): 13.42%; Apoptosis Total (HepG2 cells [6]): 16.39%; Necrosis (HepG2 cells [6]): 6.33%; Apoptosis Early (MCF-7 cells [4]): 5.08%; Apoptosis Late (MCF-7 cells [4]): 25.68%; Apoptosis Total (MCF-7 cells [4]): 30.76%; Necrosis (MCF-7 cells [4]): 11.75%; Fold Relative to Sorafenib (VEGFR-2 (KDR)): 2.0 fold; IC50 (VEGFR-2 (KDR)): 63 ± 3.9 nM |
| 10.4 ± 1.1 | 10.4 | 28.9 ± 2.3 | 28.9 | – | Cn1c(NN)nc2cc3ccccc3cc2c1=O [Compound 16] | – |
| 10.1 ± 0.7 | 10.1 | 29.8 ± 2.1 | 29.8 | – | CCn1c(NN)nc2cc3ccccc3cc2c1=O [Compound 17] | – |
| 10.3 ± 0.8 | – | 28.5 ± 1.9 | – | – | COc1cccc2c1C(=O)c1c(O)c3c(c(O)c1C2=O)C[C@@](O)(C(=O)CO)C[C@@H]3O[C@H]1C[C@H](N)[C@H](O)[C@H](C)O1 [Doxorubicin, reference compound] | – |

| SMILES | IC50 [1, 7] [µM] | IC50 [1, 8] [µM] | IC50 [2, 9] [µM] | IC50 [2, 10] [µM] | melting point [°C] | other results |
| --- | --- | --- | --- | --- | --- | --- |
| CCn1c(SCCCN2C(=O)c3ccccc3C2=O)nc2cc3ccccc3cc2c1=O [Compound 15, 2-(3-((3-Ethyl-4-oxo-3,4-dihydrobenzo[g]quinazolin-2-yl)thio)propyl)isoindoline-1,3-dione] | 9.4 ± 0.7 | 9.4 | 26 ± 2.5 | 28 | – | Cell Cycle Distribution %G0/G1 (MCF-7 cells [3]): 43.25%; Cell Cycle Distribution %G2/M (MCF-7 cells [3]): 28.0% and 28.03%; Cell Cycle Distribution %S (MCF-7 cells [3]): 28.72%; Cell Cycle Distribution %G0/G1 (HepG2 cells [5]): 31.15%; Cell Cycle Distribution %G2/M (HepG2 cells [5]): 39.2% and 39.24%; Cell Cycle Distribution %S (HepG2 cells [5]): 29.61%; Apoptosis Early (HepG2 cells [6]): 3.44%; Apoptosis Late (HepG2 cells [6]): 14.4%; Apoptosis Total (HepG2 cells [6]): 17.84%; Necrosis (HepG2 cells [6]): 6.27%; Apoptosis Early (MCF-7 cells [4]): 5.57%; Apoptosis Late (MCF-7 cells [4]): 19.73%; Apoptosis Total (MCF-7 cells [4]): 25.3%; Necrosis (MCF-7 cells [4]): 8.14%; Fold Relative to Sorafenib (VEGFR-2 (KDR)): 1.4 fold; IC50 (VEGFR-2 (KDR)): 44.4 ± 2.6 nM |
